Earlier results, collected in patent US20210195917A1, “COMPOSITIONS AND RELATED METHODS FOR AGRICULTURE” (priority 2017, published 2021).

Experiments:
target bacterial strains = settings: against its target bacterial strains
bees = settings: in vivo
[1] = test system: gram-negative and gram-positive bacteria as well as fungi

Molecule: botrycidin AJ1316
- antifungal activities (fungi): antifungal activities

Molecule: nisin
- concentration showing antimicrobial activity (target bacterial strains): single-digit nanomolar

Molecule: COP(=S)(OC)Oc1ccc([N+](=O)[O-])c(C)c1 [fenitrothion]
- toxicity to bees (bees): toxic to bees

B1: NCR335: cationic NCR peptide of Medicago truncatula, SEQ ID NO: 65 (peptide, listed as Medicago truncatula)
chain: MQIGKNMVETPKLDYVIIFFFLYFFFRQMIILRLNTTFRPLNFKMLRFWGQNRNIMKHRGQKVHFSLILSDCKTNKDCPKLRRANVRCRKSYCVPI
- antimicrobial activities [1]: effective
